≈ marks a conversion by molar mass, not a printed value.
What was measured:
Format in all cases: functional
[1] = test system: Candida albicans; test: Antibacterial activity against Candida albicans ATCC 10231 by broth microdilution method
[2] = test system: Staphylococcus aureus; test: Antibacterial activity against Staphylococcus aureus ATCC 6538 by broth microdilution method
[3] = test system: Pseudomonas aeruginosa; test: Antibacterial activity against Pseudomonas aeruginosa ATCC 10145 by broth microdilution method
[4] = test system: Nakaseomyces glabratus; test: Antibacterial activity against Candida Candida glabrata ATCC 2001 by broth microdilution method
[5] = test system: Staphylococcus aureus; test: Antibacterial activity against methicillin resistant Staphylococcus aureus ATCC 43300 by broth microdilution method
[6] = test system: Escherichia coli; test: Antibacterial activity against Escherichia coli ATCC 11775 by broth microdilution method

SMILES	MIC [1] [µg/mL]	MIC [2] [µg/mL]	MIC [3] [µg/mL]	MIC [4] [µg/mL]	MIC [5] [µg/mL]	MIC [6] [µg/mL]
C=Cc1cc(OC)c2c(c1)c(=O)oc1c2cc(OC)c2c(O)ccc([C@H]3O[C@@H]([C@@H](C)O)[C@H](O)[C@H]3O)c21	> 64	0.5 (≈ 1.01 µM)	> 64	> 64	0.25 (≈ 0.506 µM)	> 64
C=Cc1cc(OC)c2c(c1)c(=O)oc1c2cc(OC)c2c(OC(C)=O)ccc([C@H]3O[C@@H]([C@@H](C)OC(C)=O)[C@H](OC(C)=O)[C@H]3OC(C)=O)c21	> 64	> 64	> 64	> 64	> 64	> 64
CCc1cc(OC)c2c(c1)c(=O)oc1c2cc(OC)c2c(O)ccc([C@H]3O[C@@H]([C@@H](C)O)[C@H](O)[C@H]3O)c21	> 64	> 64	> 64	> 64	> 64	> 64
COc1cc2c(oc(=O)c3cc(C(O)CCl)cc(OC)c32)c2c([C@H]3O[C@@H]([C@@H](C)O)[C@H](O)[C@H]3O)ccc(O)c12 (stereo partly drawn)	> 64	> 64	> 64	> 64	> 64	> 64
COc1cc2c(oc(=O)c3cc([C@H]4CC[C@H]4c4cc(OC)c5c(c4)c(=O)oc4c5cc(OC)c5c(O)ccc([C@H]6O[C@@H]([C@@H](C)O)[C@H](O)[C@H]6O)c54)cc(OC)c32)c2c([C@H]3O[C@@H]([C@@H](C)O)[C@H](O)[C@H]3O)ccc(O)c12	> 64	8 (≈ 8.09 µM)	> 64	> 64	4 (≈ 4.04 µM)	> 64
COc1cc2c(oc(=O)c3cc(C(C)C)cc(OC)c32)c2c([C@H]3O[C@@H]([C@@H](C)O)[C@H](O)[C@H]3O)ccc(O)c12	> 64	> 64	> 64	> 64	16 (≈ 31.3 µM)	> 64
COc1cc2c(oc(=O)c3cc(C)cc(OC)c32)c2c([C@H]3O[C@@H]([C@@H](C)OC(C)=O)[C@H](OC(C)=O)[C@H]3OC(C)=O)ccc(OC(C)=O)c12	> 64	> 64	> 64	> 64	> 64	> 64
COc1cc2c(oc(=O)c3cc(CO)cc(OC)c32)c2c([C@H]3O[C@@H]([C@@H](C)O)[C@H](O)[C@H]3O)ccc(O)c12	> 64	> 64	> 64	> 64	> 64	> 64
C=Cc1cc(OC)c2c(c1)c(=O)oc1c2cc(OC)c2c(O)ccc([C@@H]3O[C@@H]([C@@H](C)O)[C@H](O)[C@H]3O)c21	> 64	64 (≈ 129 µM)	> 64	> 64	16 (≈ 32.4 µM)	> 64
COc1cc2c(oc(=O)c3cc([C@H](C)OC(C)=O)cc(OC)c32)c2c([C@H]3O[C@@H]([C@@H](C)OC(C)=O)[C@H](OC(C)=O)[C@H]3OC(C)=O)ccc(OC(C)=O)c12	> 64	> 64	> 64	> 64	> 64	> 64
COc1cc2c(oc(=O)c3cc(C(O)CO)cc(OC)c32)c2c([C@H]3O[C@@H]([C@@H](C)O)[C@H](O)[C@H]3O)ccc(O)c12 (stereo partly drawn)	> 64	> 64	> 64	> 64	> 64	> 64
COc1cc2c(oc(=O)c3cc([C@H](C)O)cc(OC)c32)c2c([C@H]3O[C@@H]([C@@H](C)O)[C@H](O)[C@H]3O)ccc(O)c12	> 64	> 64	> 64	> 64	> 64	> 64
COc1cc2c(oc(=O)c3cc(CCO)cc(OC)c32)c2c([C@H]3O[C@@H]([C@@H](C)O)[C@H](O)[C@H]3O)ccc(O)c12	> 64	32 (≈ 62.4 µM)	> 64	> 64	64 (≈ 125 µM)	> 64
C=Cc1cc(OC)c2c(c1)c(=O)oc1c3cccc(O)c3c(OC)cc12	> 64	> 64	> 64	> 64	> 64	> 64
COc1cc2c(oc(=O)c3cc(C)cc(OC)c32)c2c([C@H]3O[C@@H]([C@@H](C)O)[C@H](O)[C@H]3O)ccc(O)c12	> 64	1 (≈ 2.07 µM)	> 64	> 64	2 (≈ 4.15 µM)	> 64
C=Cc1cc(OC)c2c(c1)c(=O)oc1c2cc(OC)c2c(O)ccc([C@@H]3O[C@@H]([C@H](O)CO)[C@H](O)[C@H]3O)c21	> 64	16 (≈ 31.3 µM)	> 64	> 64	8 (≈ 15.7 µM)	> 64
O=C(O)c1cn(C2CC2)c2cc(N3CCNCC3)c(F)cc2c1=O [CIPROFLOXACIN]		0.25 (≈ 0.754 µM)			0.5 (≈ 1.51 µM)	
